Key:
Albumin [1] = biological target: T1, Albumin (Homo sapiens, UniProt P02768); test: Binding affinity to human serum albumin with excitation at 285 nm after 30 mins by fluorescence spectrophotometric analysis
Albumin [2] = biological target: T1, Albumin; test: Binding affinity to human serum albumin with excitation at 295 nm after 30 mins by fluorescence spectrophotometric analysis

T1 sequence (P02768 whole entry): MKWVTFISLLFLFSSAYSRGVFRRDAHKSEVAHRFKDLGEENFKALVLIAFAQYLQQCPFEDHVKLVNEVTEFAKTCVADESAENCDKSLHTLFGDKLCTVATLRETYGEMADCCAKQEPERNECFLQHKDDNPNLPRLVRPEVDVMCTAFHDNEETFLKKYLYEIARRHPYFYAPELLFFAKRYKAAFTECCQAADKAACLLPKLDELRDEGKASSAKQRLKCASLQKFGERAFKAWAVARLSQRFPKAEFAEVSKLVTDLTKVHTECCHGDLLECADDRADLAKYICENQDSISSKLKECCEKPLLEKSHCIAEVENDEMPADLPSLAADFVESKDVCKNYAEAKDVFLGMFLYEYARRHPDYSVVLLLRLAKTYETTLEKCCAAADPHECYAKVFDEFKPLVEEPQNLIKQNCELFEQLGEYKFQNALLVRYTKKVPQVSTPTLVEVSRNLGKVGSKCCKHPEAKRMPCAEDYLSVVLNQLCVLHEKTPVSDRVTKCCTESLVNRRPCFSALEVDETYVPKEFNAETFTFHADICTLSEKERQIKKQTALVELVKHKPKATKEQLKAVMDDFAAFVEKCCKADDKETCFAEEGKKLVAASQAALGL

| Kd (Albumin [1]) [µM] | Kd (Albumin [2]) [µM] | SMILES |
| --- | --- | --- |
| 47 | 37 | C=C(C)[C@@H]1CC[C@]2(C(=O)N[C@H](C)C(=O)O)CC[C@]3(C)[C@H](CC[C@@H]4[C@@]5(C)CC[C@H](O)C(C)(C)[C@@H]5CC[C@]43C)[C@@H]12 |
| 19 | 19 | C=C(C)[C@@H]1CC[C@]2(C(=O)N[C@H](C)C(=O)[O-])CC[C@]3(C)[C@H](CC[C@@H]4[C@@]5(C)CC[C@H](O)C(C)(C)[C@@H]5CC[C@]43C)[C@@H]12.CCCCCCCCCCCC[N+](C)(C)Cc1ccccc1 |
| 1.6 | 1.9 | C=C(C)[C@@H]1CC[C@]2(C(=O)[O-])CC[C@]3(C)[C@H](CC[C@@H]4[C@@]5(C)CC[C@H](O)C(C)(C)[C@@H]5CC[C@]43C)[C@@H]12.CCCCCCCCCCCC[N+](C)(C)Cc1ccccc1 |

From BindingDB's records for doi:10.1016/j.bmcl.2015.05.099 (Mercer University, 2015)
